Earlier results, collected in patent US20240024221A1, “COMPOSITION FOR BRIGHTENING AND/OR WHITENING KERATIN MATERIALS” (L'OREAL, priority 2020, published 2024).

Settings: 25° C.; raw material table

Compound | HLB
CCCCCCCCCCCC[N+](C)(C)CC(=O)[O-] [LAURYL BETAINE] | 15
POLYGLYCERYL-2 OLEATE | 8
CCCCCCCCCCC(CCCCCCCC)CO[C@@H]1OC[C@@H](O)[C@H](O)[C@H]1O (some centres unmarked) [OCTYLDODECYL XYLOSIDE] | 7.3
POLYSORBATE 20 | 18.6
SODIUM DILAURAMIDOGLUTAMIDE LYSINE | 12.6
